# Source: BindingDB's records for doi:10.1111/j.1476-5381.1995.tb15071.x (Vrije Universiteit, 1995)
# pKi: −log10 of the molar value.
# Target: Sodium-dependent serotonin transporter (Cavia porcellus, UniProt O35899)
# Sequence (O35899 whole entry): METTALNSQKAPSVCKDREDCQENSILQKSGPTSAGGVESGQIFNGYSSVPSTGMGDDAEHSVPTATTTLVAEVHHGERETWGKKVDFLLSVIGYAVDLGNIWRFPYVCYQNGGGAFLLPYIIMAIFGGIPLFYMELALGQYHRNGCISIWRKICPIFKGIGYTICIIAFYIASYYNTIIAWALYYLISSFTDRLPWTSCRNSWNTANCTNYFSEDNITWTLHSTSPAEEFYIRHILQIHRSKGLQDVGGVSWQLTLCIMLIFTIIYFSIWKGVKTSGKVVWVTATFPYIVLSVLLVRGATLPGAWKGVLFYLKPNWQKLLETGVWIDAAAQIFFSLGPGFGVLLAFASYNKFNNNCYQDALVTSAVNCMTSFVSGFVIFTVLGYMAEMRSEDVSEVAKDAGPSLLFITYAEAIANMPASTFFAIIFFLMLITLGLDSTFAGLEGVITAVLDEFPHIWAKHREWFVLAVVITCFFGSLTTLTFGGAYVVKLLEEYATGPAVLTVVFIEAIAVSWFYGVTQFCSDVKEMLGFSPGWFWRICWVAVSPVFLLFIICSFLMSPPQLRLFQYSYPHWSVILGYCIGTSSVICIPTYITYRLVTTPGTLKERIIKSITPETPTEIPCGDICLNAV
compound,measurement,value
S=C(NC1CCCCC1)N1CCC(c2cnc[nH]2)CC1,pKi,< 5.00
